From PubChem BioAssay AID1963865 (Molecular Pharmacology Branch, DTP, NCI, 2024)

Tested on: KRAS PDC multicell spheroid viability
Assay: Anticancer human tumor 825966-067-R-J1-PDC patient-derived colon carcinoma cell line growth inhibition [KRAS2]
Details: for IC50: curve of first compound; for viability, T/C: stronger effect = lower value; active = viability on the fitted dose curve at most 10% of control; inactive = the rest
Source text: Multicellular complex tumor spheroid response to RAS pathway inhibitors in combination with a targeted agents in patient-derived cell lines with oncogenic KRAS variants from multiple cancer types
A high-throughput screen of multi-cell type tumor spheroids was designed to identify active combinations of targeted small molecules and KRAS pathway inhibitors. Complex spheroids include a stromal component modeled by human endothelial cells (HUVEC) and fibroblasts modeled by human mesenchymal stem cells (MSCs). The concentration ranges selected for each drug and investigational agent were based upon clinically achievable concentrations if the clinical Cmax of the agent was known.
Compounds. The drugs and investigational agents: BI-3406 (NSC825286), BAY-293 (NSC824723), batoprotafib (TNO155; NSC825523), sotorasib (AMG 510; NSC818433), MRTX1257 (NSC819558), elimusertib (BAY 1895344; NSC800525), molibresib (GSK525762; NSC774829), temuterkib (LY3214996; NSC803410), venetoclax (NSC766270), alisertib (NSC759677), olaparib (NSC753686), talazoparib (NSC767125), erdafitinib (NSC781556), ipatasertib (NSC767898), cabozantinib (NSC761068), nintedanib (NSC756659), abemaciclib (NSC768073), docetaxel (NSC628503), trametinib (NSC758246), and sapanisertib (NSC764658) were obtained from the National Cancer Institute (NCI) Developmental Therapeutics Program Chemical Repository. The FDA-approved anticancer drug set is available from the Developmental Therapeutics Program. […] The stock solutions were prepared in dimethyl sulfoxide (DMSO, Sigma-Aldrich, St. Louis, MO, cat. D2650) at 800-fold the tested concentration and stored at -70 degrees C prior to their use. All drugs and investigational agents were tested over a range starting from a high concentration at or near the clinical Cmax and decreasing in half-log increments. If the clinical Cmax for an agent had not been determined, the highest concentration tested was 10 microM.
Cell Culture. All cells were maintained in an incubator at 37 degrees C and 5% CO2 with 95% humidity. The PDC lines were cultured according to standard operating procedures established by the NCI PDMR (https://pdmr.cancer.gov/sops/default.htm). Briefly, all PDCs were thawed and cultured in Matrigel-coated flasks prepared with a working solution of 1X Ham's F-12 nutrient mix, without supplementation (Invitrogen, Waltham, MA, cat. 11765054), 100 U/mL penicillin-streptomycin (Invitrogen, cat. 15140122), and 2.5% Matrigel (Corning Inc., Corning, NY, cat. 354248) for the first three passages. All PDCs were cultured in complete DMEM/F-12 media containing advanced DMEM/F-12 (Invitrogen, cat. 12634028), 4.9% defined fetal bovine serum, heat inactivated (HyClone Laboratories Inc., Logan, UT, cat. SH30070.03HI), 389 ng/mL hydrocortisone (Sigma-Aldrich, cat. H4001), 9.7 ng/mL human EGF recombinant protein (Invitrogen, cat. PHG0313), 23.4 microg/mL adenine (Sigma-Aldrich, cat. A2786), 97.3 U/mL penicillin-streptomycin (Invitrogen, cat. 15140122), 1.9 mM L-glutamine (Invitrogen, cat. 25030081), and 9.7 microM Y-27632 dihydrochloride (Tocris Bioscience, Bristol, United Kingdom, cat. 1254). The PDCs were cultured in complete DMEM/F12 media without 9.7 microM Y-27632 dihydrochloride for at least two passages prior to the screen. The established cell line HOP-62 was cultured in RPMI 1640 medium, HEPES (Invitrogen, cat. 22400105) with 10% defined fetal bovine serum (HyClone Laboratories Inc., cat. SH30070.03) and 2 mM L-glutamine (Invitrogen, cat. 25030081). The pooled donor HUVEC were cultured in endothelial cell growth medium 2 (PromoCell, Heidelberg, Germany, cat. C-22011) and the hMSC were cultured in mesenchymal stem cell growth medium 2 (PromoCell, cat. C-28009). For all experiments, HUVEC and hMSC were used at passages </=5, while the malignant cell lines were used at passages </=15. […]

[1] = second compound 0.1 µM, first compound 0.0316 µM
[2] = second compound 0.1 µM, first compound 0.1 µM
[3] = second compound 0.316 µM, first compound 0.0316 µM
[4] = second compound 0.316 µM, first compound 0.1 µM
[5] = second compound 1 µM, first compound 0.0316 µM
[6] = second compound 1 µM, first compound 0.1 µM
[7] = second compound 3.16 µM, first compound 0.0316 µM
[8] = second compound 3.16 µM, first compound 0.1 µM
[9] = second compound 10 µM, first compound 0.0316 µM
[10] = second compound 10 µM, first compound 0.1 µM
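Note: spheroids exposed to compounds for 7 days.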

CC1OCC2(CCN(c3cnc(Sc4ccnc(N)c4Cl)c(N)n3)CC2)C1N (stereo not given) + C=CC(=O)N1CCN(c2nc(=O)n(-c3c(C)ccnc3C(C)C)c3nc(-c4c(O)cccc4F)c(F)cc23)C(C)C1
6.05 µM: IC50 (second compound 3.16 µM)
active: viability, T/C (second compound 10 µM, first compound 10 µM) 4.36%
9.58 µM: IC50 (second compound 0.1 µM)
4.49 µM: IC50 (second compound 10 µM)
6.95 µM: IC50 (second compound 0.316 µM)
inactive: viability, T/C [1] 78.4% | viability, T/C [2] 66.8% | viability, T/C (second compound 0.1 µM, first compound 0.316 µM) 98.4% | viability, T/C (second compound 0.1 µM, first compound 1 µM) 85% | viability, T/C (second compound 0.1 µM, first compound 3.16 µM) 94.1% | viability, T/C (second compound 0.1 µM, first compound 10 µM) 48.6% | viability, T/C [3] 82.8% | viability, T/C [4] 96.1% | viability, T/C (second compound 0.316 µM, first compound 0.316 µM) 79.4% | viability, T/C (second compound 0.316 µM, first compound 1 µM) 78.3% | viability, T/C (second compound 0.316 µM, first compound 3.16 µM) 94.1% | viability, T/C (second compound 0.316 µM, first compound 10 µM) 33.3% | viability, T/C [5] 82.1% | viability, T/C [6] 69.3% | viability, T/C (second compound 1 µM, first compound 0.316 µM) 74.8% | viability, T/C (second compound 1 µM, first compound 1 µM) 75.5% | viability, T/C (second compound 1 µM, first compound 3.16 µM) 76.3% | viability, T/C (second compound 1 µM, first compound 10 µM) 43.1% | viability, T/C [7] 93.5% | viability, T/C [8] 70.1% | viability, T/C (second compound 3.16 µM, first compound 0.316 µM) 83.2% | viability, T/C (second compound 3.16 µM, first compound 1 µM) 81% | viability, T/C (second compound 3.16 µM, first compound 3.16 µM) 90.4% | viability, T/C (second compound 3.16 µM, first compound 10 µM) 23.9% | viability, T/C [9] 80.5% | viability, T/C [10] 74.3% | viability, T/C (second compound 10 µM, first compound 0.316 µM) 106% | viability, T/C (second compound 10 µM, first compound 1 µM) 92.9% | viability, T/C (second compound 10 µM, first compound 3.16 µM) 70.1%
7.78 µM: IC50 (second compound 1 µM)

CN(C)C/C=C/C(=O)Nc1cc2c(Nc3ccc(F)c(Cl)c3)ncnc2cc1O[C@H]1CCOC1 + CC1OCC2(CCN(c3cnc(Sc4ccnc(N)c4Cl)c(N)n3)CC2)C1N
> 0.1 µM: IC50 (second compound 0.1 µM) | IC50 (second compound 0.316 µM) | IC50 (second compound 1 µM) | IC50 (second compound 3.16 µM) | IC50 (second compound 10 µM)
inactive: viability, T/C (second compound 0.1 µM, first compound 0.000316 µM) 103% | viability, T/C (second compound 0.1 µM, first compound 0.001 µM) 100% | viability, T/C (second compound 0.1 µM, first compound 0.00316 µM) 126% | viability, T/C (second compound 0.1 µM, first compound 0.01 µM) 120% | viability, T/C [1] 91.4% | viability, T/C [2] 80.2% | viability, T/C (second compound 0.316 µM, first compound 0.000316 µM) 93.4% | viability, T/C (second compound 0.316 µM, first compound 0.001 µM) 86.6% | viability, T/C (second compound 0.316 µM, first compound 0.00316 µM) 94.2% | viability, T/C (second compound 0.316 µM, first compound 0.01 µM) 79.1% | viability, T/C [3] 105% | viability, T/C [4] 101% | viability, T/C (second compound 1 µM, first compound 0.000316 µM) 104% | viability, T/C (second compound 1 µM, first compound 0.001 µM) 118% | viability, T/C (second compound 1 µM, first compound 0.00316 µM) 99% | viability, T/C (second compound 1 µM, first compound 0.01 µM) 81.8% | viability, T/C [5] 84.2% | viability, T/C [6] 96.8% | viability, T/C (second compound 3.16 µM, first compound 0.000316 µM) 100% | viability, T/C (second compound 3.16 µM, first compound 0.001 µM) 105% | viability, T/C (second compound 3.16 µM, first compound 0.00316 µM) 93.9% | viability, T/C (second compound 3.16 µM, first compound 0.01 µM) 86.3% | viability, T/C [7] 88.1% | viability, T/C [8] 85.9% | viability, T/C (second compound 10 µM, first compound 0.000316 µM) 81.1% | viability, T/C (second compound 10 µM, first compound 0.001 µM) 87.2% | viability, T/C (second compound 10 µM, first compound 0.00316 µM) 108% | viability, T/C (second compound 10 µM, first compound 0.01 µM) 107% | viability, T/C [9] 94.9% | viability, T/C [10] 124%
